Source: patent US20260265229A1, “Small Molecule Modulators of IL-17A, Methods of Making and Methods of Using Thereof” (Ascletis Pharma (China) Co., Limited, priority 2023, published 2026)

Target: T1, IL-17A (Homo sapiens, UniProt Q16552)
T1 construct: purchased R&D 7955-IL
T1 sequence (Q16552 24-155): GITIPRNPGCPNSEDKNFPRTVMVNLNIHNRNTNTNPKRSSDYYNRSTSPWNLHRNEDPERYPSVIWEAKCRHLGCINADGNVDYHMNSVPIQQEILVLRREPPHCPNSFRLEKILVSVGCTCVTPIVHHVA
Experiment: HEK-Blue IL-17 cell assay (SEAP reporter, rhIL-17A/A stimulation)
Assay type: cell-based
Settings: HEK-Blue IL-17 cells with rhIL-17A/A, 20 hours at 37° C., absorbance at 405 nm
Procedure: 1. The test Compounds were 3-fold serial diluted from 10 mM for 10 doses in DMSO.
2. Prepare Reference Compounds (IL-17A-Inhibitor-1) were 3-fold serial diluted from 1 mM for 10 doses in DMSO.
3. Prepare 1000× Positive control (1 mM IL-17A-Inhibitor-1) and 1000× vehicle control (100% DMSO).
• a) Cells were cultured as the HEK-Blue™ IL-17 technical data sheet recommended. HEK-Blue IL-17 cells were assayed in the exponential growth phase. • b) Aspirate growth medium and rinse cells twice with PBS to remove phenol red. • c) Resuspend cells in test medium to a proper concentration. • d) Only cells with viability greater than 90% were used for assays. • e) Transfer 25nl of compound dilutions into 384-well assay plates using Echo655; • f) Seed 25 ul of HEK-Blue IL-17 cells at 8,000 cells/well into 384-well plate with rhIL-17A/A. • g) Cells were incubated for 20 hours at 37° C. under 5% CO2 atmosphere. • h) Transfer 2 ul of cells supernatant into per well of 384-well assay plates. • i) Add 20 ul of PNPP substrate. • j) Measure the Absorbance at 405 nm on Envision 2105 plate reader.
RLU signal (LUMempd) is calculated for each well. % Inhibition is calculated as follow: […]
Signalave_pc: The average signal for the positive controls across the plate.
Signalave_vc: The average signal for negative controls across the plate.
Calculate IC50 and Plot effect-dose curve of cmpds:
Calculate IC50 by fitting % Inhibition values and log of compound concentrations to nonlinear regression (dose response−variable slope) with Graphpad 8.0.

| IC50 | SMILES |
| --- | --- |
| 39.6 nM | CC(=O)N1CC(c2ccc(NC(=O)[C@@H](NC(=O)c3ccnn3C(C)C)C3CCCCCC3)cc2)[C@H](C(=O)N2CC(F)(F)C(F)(F)C2)C1 (stereo partly drawn) [Cis-62] |
| 15.3 nM | COC(=O)N1C[C@H](c2ccc(NC(=O)[C@@H](NC(=O)c3ccnn3C(C)C)C3CCCCCC3)cc2)[C@H](C(=O)N2CC(F)(F)C2)C1 [Example 1, methyl (3S,4S)-3-(4-((S)-2-cycloheptyl-2-(1-isopropyl-1H-pyrazole-5-carboxamido)acetamido)phenyl)-4-(3,3-difluoroazetidine-1-carbonyl)pyrrolidine-1-carboxylate] |
| 110 nM | COC(=O)N1C[C@H](C(=O)N2CC(F)(F)C2)[C@@H](c2ccc(NC(=O)[C@@H](NC(=O)c3ccnn3C(C)C)C3CCCCCC3)cc2)C1 [Example 2] |
| 69 nM | CC(=O)N1C[C@H](c2ccc(NC(=O)[C@@H](NC(=O)c3ccnn3C(C)C)C3CCCCCC3)cc2)[C@H](C(=O)N2CC(F)(F)C2)C1 [Example 6] |
| 6040 nM | COC(=O)N1CC(C(=O)N2CC(F)(F)C2)=C(c2ccc3cnc([C@@H](NC(=O)c4ccnn4C(C)C)C4CCC(F)(F)CC4)nc3c2)C1 [Example 46] |
| 1860 nM | CC(=O)N1C[C@H](C(=O)N2CCN(C)CC2)[C@@H](c2ccc(NC(=O)[C@@H](NC(=O)c3ccnn3C(C)C)C3CCCCCC3)cc2)C1 [Example 49] |
| 420 nM | CC(C)n1nccc1C(=O)N[C@H](c1nc2c(F)cc(C3=C(C(=O)N4CC(F)(F)C4)CN(C(=O)OCc4ccccc4)C3)cc2[nH]1)C1CCCCCC1 [Example 50] |
| 118 nM | CC(=O)N1CC(C(=O)N2CC(F)(F)C2)C(c2cc(F)c3nc([C@@H](NC(=O)c4ccnn4C(C)C)C4CCCCCC4)[nH]c3c2)C1 (stereo partly drawn) [Example 51] |
| 103 nM | CC(=O)N1C[C@H](C(=O)NCC(C)(F)F)[C@@H](c2ccc(NC(=O)[C@@H](NC(=O)c3ccnn3C(C)C)C3CCCCCC3)cc2)C1 [Example 52] |
| 532 nM | COC(=O)N1CC(C(=O)N2CC(F)(F)C2)C(c2cc(F)c3nc([C@@H](NC(=O)c4ccnn4C(C)C)C4CCCCCC4)[nH]c3c2)C1 (stereo partly drawn) [Example 53] |
| 28.6 nM | CC(=O)N1C[C@H](C(=O)N2CC(F)(F)C(F)(F)C2)[C@@H](c2ccc(NC(=O)[C@@H](NC(=O)c3ccnn3C(C)C)C3CCCCCC3)cc2)C1 [Example 54] |
| 944 nM | COC(=O)N1C[C@H](C(=O)N2CC(F)(F)C2)[C@@H](c2ccc(NC(=O)[C@@H](NC(=O)c3ccnn3C(C)C)C3CCC(F)(F)CC3)cc2)C1 [Example 55] |
| 1450 nM | COC(=O)N1C[C@H](C(=O)N2CC(F)(F)C2)[C@@H](c2ccc(NC(=O)[C@@H](NC(=O)c3nonc3C)C3CCC(F)(F)CC3)cc2)C1 [Example 56] |
| 46.8 nM | COC(=O)N1C[C@H](C(=O)N2CC(F)(F)C(F)(F)C2)[C@@H](c2ccc(NC(=O)[C@@H](NC(=O)c3ccnn3C(C)C)C3CCCCCC3)cc2)C1 [Example 57] |
| 39.3 nM | CC(C)n1nccc1C(=O)N[C@H](C(=O)Nc1ccc([C@H]2CN(C(=O)N(C)C)C[C@@H]2C(=O)N2CC(F)(F)C(F)(F)C2)cc1)C1CCCCCC1 [Example 58] |
| 143 nM | CC(C)n1nccc1C(=O)N[C@H](C(=O)Nc1ccc([C@H]2CN(C(=O)CCC(F)(F)F)C[C@@H]2C(=O)N2CC(F)(F)C(F)(F)C2)cc1)C1CCCCCC1 [Example 59] |
| 315 nM | CC(=O)N1C[C@H](C(=O)N2CC(F)(F)C(F)(F)C2)[C@@H](c2ccc(NC(=O)[C@@H](NC(=O)c3ccnn3C(C)C)C3CCC(F)(F)CC3)cc2)C1 [Example 60] |
| 66.8 nM | COC(=O)N1C[C@H](C(=O)N2CC(F)(F)C(F)(F)C2)[C@@H](c2ccc(NC(=O)[C@@H](NC(=O)c3ccnn3C(C)C)C3CCCCCC3)cc2F)C1 [Example 61] |
| 132 nM | CC(=O)N1CC(c2ccc(NC(=O)[C@@H](NC(=O)c3ccnn3C(C)C)C(C3CC3)C3CC3)cc2)[C@@H](C(=O)N2CC(F)(F)C(F)(F)C2)C1 (stereo partly drawn) [Example 63] |
| 11.5 nM | CC(=O)N1C[C@H](c2ccc(NC(=O)[C@@H](NC(=O)c3ccnn3C(C)C)C3CCCCCC3)cc2)[C@H](C(=O)N2CC(F)(F)C(F)(F)C2)C1 [Example 64] |
| 57.2 nM | CC(=O)N1C[C@H](C(=O)N2CC(F)(F)C(F)(F)C2)[C@H](c2ccc(NC(=O)[C@@H](NC(=O)c3ccnn3C(C)C)C3CCCCCC3)cc2)C1 [Example 65] |
| 44.4 nM | CC(=O)N1C[C@H](c2ccc(NC(=O)[C@@H](NC(=O)c3ccnn3C(C)C)C3CCCCCC3)cc2)[C@H](C(=O)NCC(F)(F)F)C1 [Example 66] |
| 31.4 nM | CC(=O)N1C[C@H](c2ccc(NC(=O)[C@@H](NC(=O)c3ccnn3C(C)C)C3CCCCCC3)c(F)c2)[C@H](C(=O)N2CC(F)(F)C(F)(F)C2)C1 [Example 67] |
| 48.6 nM | CC(=O)N1C[C@H](C(=O)N(C)CC(F)(F)F)[C@@H](c2ccc(NC(=O)[C@@H](NC(=O)c3ccnn3C(C)C)C3CCCCCC3)cc2)C1 [Example 68] |
